Laboratory results taken from US20220267376A1, “P53 ACTIVATOR PEPTIDOMIMETIC MACROCYCLES” (Merck Sharp & Dohme Corp., priority 2019, published 2022).
Starred links: 1 amine or outer side, 2 acyl side, 3 side chain; linkers in the order of their positions; H or OH if unused. Positions of bridges follow the written chain, without caps; N, C: chain ends. Non-standard residues stand in square brackets, D forms with d. Residues, ends and D or L forms follow the SMILES beside them. No end group written: not given here. ξ: configuration not given here. dPhe(4-CF3) = N[C@H](Cc1ccc(C(F)(F)F)cc1)C(=O)O; dTrp(6-F) = N[C@H](Cc1c[nH]c2cc(F)ccc12)C(=O)O; ξPhe(4-CF3) = NC(Cc1ccc(C(F)(F)F)cc1)C(=O)O; X1 = C[C@](CCCCC=[*:3])(N[*:1])C(=O)[*:2]; R8 = C=CCCCCCC[C@@](C)(N)C(=O)O; S8 = C=CCCCCCC[C@](C)(N)C(=O)O; R5 = C=CCCC[C@@](C)(N)C(=O)O; S5 = C=CCCC[C@](C)(N)C(=O)O

B1: ^DPMI-δ(1-5) (peptide)
peptide: XAXYXNXEKLLR
modifications: all alpha-amino acids have a D configuration; Xaa1 is R5 and Xaa5 is R5 ((R)-2-(4'-pentenyl)-alanine), joined by a hydrocarbon staple; Xaa3 is 6-F-Trp; Xaa7 is p-CF3-Phe; Xaa12 optionally has a C-terminal amide; Xaa1 optionally has a N-terminal acyl
B2: ^DPMI-δ(1,5,12) (peptide)
peptide: XAXYXNXEKLLX
modifications: all alpha-amino acids have a D configuration; Xaa1 is R5 ((R)-2-(4'-pentenyl)-alanine), Xaa5 is B5 (2,2-(4'-pentenyl)-glycine), Xaa12 is R8 ((R)-2-(7'-octenyl)-alanine), joined by a hydrocarbon stitch 1-5 and 5-12 with residue 5 in common; Xaa3 is 6-F-Trp; Xaa7 is p-CF3-Phe; Xaa12 optionally has a C-terminal amide; Xaa1 optionally has a N-terminal acyl

Key:
[1] = test system: HCT116 p53 reporter cells; assay: p53 beta-lactamase reporter gene assay; format: cell-based; conditions: for EC50: read-out: P53 activity EC50 (μM) (2% FBS) 16 H, HCT116 p53 reporter, 2% FBS, 16 H; for p53 activation in reporter cells: 16 hours, up to 50 μM
Procedure: The cells were incubated overnight and followed by removal of cell growth media and replaced with Opti-MEM either containing 0% FBS or 10% FBS. […] Measurements were done using Envision multiplate reader (Perkin-Elmer).

[2] = test system: Jump-In™ T-REx™ CHO-K1 BLA cells; assay: Tetracycline beta-lactamase reporter gene assay (counterscreen); format: cell-based; conditions: for EC50: read-out: Counterscreen EC50 (μM) (2% FBS) 16 H, 2% FBS, 16 H
Procedure: Cells were seeded into a 384-well plate a density of 4000 cells per well. […] Measurements were carried out using Envision multiplate reader (Perkin-Elmer).

HCT-116 cells = assay: HCT-116 western blot analysis (p53, MDM2, p21); format: cell-based; conditions: 6.123, 12.5 and 25 μM, 4 or 24 hours
Procedure: Preparation of compound Stock and working Solutions: 10 mM or 1 mM stock solutions of compounds were prepared in 100% DMSO. Each compound was then serially diluted in 100% DMSO and further diluted 10-fold into HPLC grade sterile water to prepare 10× working solutions in 10% DMSO/water of each compound. Depending on the required volume used in the relevant assay, compounds were added to yield final concentrations as indicated in the relevant figure with a residual DMSO concentration of 1% v/v.
HCT116 cells (Thermo Fisher Scientific) were cultured in DMEM cell media, which was supplemented with 10% foetal calf serum (FBS) and penicillin/streptomycin. All cell lines were maintained in a 37° C. humidified incubator with 5% CO2 atmosphere. HCT116 cells were seeded into 96 well plates at a cell density of 60,000 cells per well and incubated overnight. Cells were also maintained in DMEM cell media with 10% fetal bovine serum (FBS) and penicillin/streptomycin. Cell media was then removed and replaced with cell media containing the various compounds/vehicle controls at the concentrations indicated in DMEM cell media with 2% FCS, After the stated incubation time (4 or 24 hours) cells were rinsed with PBS and then harvested in 100 μl of × NuPAGE LDS sample buffer supplied by Invitrogen (NP0008). […] Protein concentrations were measured by BCA assay (Pierce). […]

[3] = Circular dichroism (CD) helicity of peptide in solution; format: physicochemical; conditions: 25° C.
Procedure: Prior to the experiment, 5 μl of the 10 mM stock peptide was mixed with 45 μl of 100% methanol, and dried for 2 hours in the SpeedVac concentrator (Thermo Scientific). The dried peptide was reconstituted in buffer, containing 1 mM HEPES pH 7.4 and 5% methanol, to a concentration of 1 mM. The peptide sample was placed in a quartz cuvette with a path length of 0.2 cm and the CD spectrum was recorded from 300 to 190 nm at 25° C., using the Chirascan-plus qCD machine (Applied Photophysics). […] An estimate of the secondary stmcture components of the peptide was carried out by converting the CD spectrum to mean residue ellipticity, before deconvoluting using the CDNN software (distributed by Applied Photophysics). All experiments were done in duplicates.

MDM2 [4] = target: T1, MDM2 (Homo sapiens, UniProt Q00987); assay: MDM2 binding assay, fluorescence polarization (FP) competition
T1 construct: GST (N); His6 (N); made in house; host or cells: E. coli BL21 (DE3) Rosetta T1R

MDM4 = target: T2, MDM4 (Homo sapiens, UniProt O15151); assay: Fluorescence polarization (FP) binding to MDM4/MDMX; conditions: for Kd: FP assay, MDM4 (MDMX)
T2 construct: GST; made in house
T2 sequence (O15151 1-490): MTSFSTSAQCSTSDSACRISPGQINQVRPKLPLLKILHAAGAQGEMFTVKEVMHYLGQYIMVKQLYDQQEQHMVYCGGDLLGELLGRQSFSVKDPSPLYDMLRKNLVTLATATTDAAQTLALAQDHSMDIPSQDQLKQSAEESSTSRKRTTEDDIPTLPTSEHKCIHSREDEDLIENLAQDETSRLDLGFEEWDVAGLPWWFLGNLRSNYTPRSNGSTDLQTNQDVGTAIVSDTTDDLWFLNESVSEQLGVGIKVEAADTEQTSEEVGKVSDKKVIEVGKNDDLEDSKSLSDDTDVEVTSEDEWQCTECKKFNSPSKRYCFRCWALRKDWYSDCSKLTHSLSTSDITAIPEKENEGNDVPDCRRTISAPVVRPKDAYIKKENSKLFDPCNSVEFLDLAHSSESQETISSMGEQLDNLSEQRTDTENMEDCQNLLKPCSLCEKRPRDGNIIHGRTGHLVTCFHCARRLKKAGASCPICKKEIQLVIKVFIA

MDM2 [5] = target: T1, MDM2; assay: Surface plasmon resonance (SPR) binding to MDM2; conditions: MDM2
HCT116 cells = assay: Lactate dehydrogenase (LDH) release assay; format: cell-based; conditions: up to 50 μM
Procedure: The cells were incubated overnight followed by removal of cell media and addition of Opti-MEM Medium without FBS. Cells were then treated with peptides for 4/16 hours in Opti-MEM either in 10% FBS or serum free. Final concentration of DMSO was 0.5%. […] Measurements were carried out using Tecan plate reader.

[6] = target: T3, human MDM2 protein (amino acids 1-125) (Homo sapiens, UniProt Q00987); assay: cell-based or functional assay
T3 sequence (Q00987 1-125 limits assumed): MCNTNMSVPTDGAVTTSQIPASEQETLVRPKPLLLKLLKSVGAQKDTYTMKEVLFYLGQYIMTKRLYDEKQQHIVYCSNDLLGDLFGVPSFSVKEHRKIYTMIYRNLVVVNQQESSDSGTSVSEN

[7] = target: T3, human MDM2 protein (amino acids 1-125); assay: SPR, biotinylated MDM2 on streptavidin, peptide as analyte
[8] = target: T3, human MDM2 protein (amino acids 1-125); assay: fluorescence polarization competition, FAM-12/1 tracer, MDM2
[9] = target: T3, human MDM2 protein (amino acids 1-125); assay: fluorescence polarization competition, MDM2
[10] = target: T3, human MDM2 protein (amino acids 1-125); assay: fluorescence anisotropy competition: unlabeled peptide titrated against the complex of MDM2 (250 nM) and FAM-labeled 12/1 peptide (50 nM)
MDM4 protein (human) = MDM4 protein (human) (UniProt O15151); assay: fluorescence polarization assay on MDM4 (anisotropy falls with the peptide concentration; the labeled tracer used with MDM4 is not given)
[11] = target: T3, human MDM2 protein (amino acids 1-125); assay: fluorescence polarization competition, FAM-12/1 tracer, MDM2; FP assay: no binding, Kd capped at 10000 nM

Molecule	EC50 [1] [µM]	EC50 [2] [µM]	CD (% helicity) [3] [%]	Kd (MDM2 [5]; Table 1) [nM]	LDH leakage (HCT116 cells)	P53 activity EC50 (µM) (2% FBS) 16 H [6]	Kd [7] [nM]	Kd [8] [nM]	IC50 (read off the curve) [10] [nM]	IC50 (read off the curve) (MDM4 protein (human)) [nM]	other results
CC(=O)N[C@@H](CC(C)C)C(=O)N[C@H](C(=O)N[C@@H](Cc1ccccc1)C(=O)N[C@]1(C)CCCCCCC=CCCC[C@@](C)(C(=O)N[C@@H](CO)C(=O)N[C@@H](C)C(=O)N[C@@H](C)C(N)=O)NC(=O)[C@H](CC2CCC2)NC(=O)[C@H](CCC(N)=O)NC(=O)[C@H](C)NC(=O)[C@H](Cc2c[nH]c3ccccc23)NC(=O)[C@H](Cc2ccc(O)cc2)NC(=O)[C@H](CCC(=O)O)NC1=O)[C@@H](C)O [ATSP-7041, reference compound]	1.8	≥ 50									Western blot: stabilization of MDM2 and activation of p53 (HCT-116 cells): Stabilization of MDM2 and activation of p53
CC(C)C[C@@H](NC(=O)[C@@H](CC(C)C)NC(=O)[C@@]1(C)CCC/C=C\CCCCCC[C@](C)(NC(=O)[C@H](N)[C@H](C)O)C(=O)N[C@H](Cc2c[nH]c3cc(F)ccc23)C(=O)N[C@H](Cc2ccc(O)cc2)C(=O)N[C@H](C)C(=O)N[C@H](CC(N)=O)C(=O)NC(Cc2ccc(C(F)(F)F)cc2)C(=O)N[C@H](CCC(=O)O)C(=O)N1)C(=O)N[C@H](CCCNC(=N)N)C(N)=O (stereo partly drawn) [^DPMI-(2-9)] (H-[dT][S8][dTrp(6-F)][dY][dA][dN][ξPhe(4-CF3)][dE][R5][dL][dL][dR]-NH2; staple (Z) 2-9)		≥ 50	26.5	7.4	did not cause LDH leakage						binding to MDM2 in FP assay (MDM2 [4]): no binding; Kd (MDM2 [4]; apparent Kd, competition with FAM-labeled 12/1 peptide): 3350 nM; binding to MDMX in FP assay (MDM4): no binding; p53 activation in reporter cells [1]: unable to activate cellular p53
CC(C)C[C@H]1NC(=O)[C@@H](CC(C)C)NC(=O)[C@@](C)(NC(=O)[C@@H](CCC(=O)O)NC(=O)[C@@H](Cc2ccc(C(F)(F)F)cc2)NC(=O)[C@@H](CC(N)=O)NC(=O)[C@@]2(C)CCC/C=C\CCC[C@@](C)(N)C(=O)N[C@H](C)C(=O)N[C@H](Cc3c[nH]c4cc(F)ccc34)C(=O)N[C@H](Cc3ccc(O)cc3)C(=O)N2)CCC/C=C\CCC[C@](C)(C(N)=O)NC1=O [^DPMI-δ (1-5,9-12)] (H-[R5][dA][dTrp(6-F)][dY][R5][dN][dPhe(4-CF3)][dE][S5][dL][dL][R5]-NH2; staple (Z) 1-5, 9-12)	34.6	≥ 50	20	< 1	No detectable LDH leakage						Kd (MDM4): 2.1 nM; Kd (MDM2 [5]; Table 2): < 1 nM; counterscreen activity [2]: negligible counter screen activity
CC(C)C[C@H]1NC(=O)[C@@H](CCCCN)NC(=O)[C@@H](CCC(=O)O)NC(=O)[C@@H](Cc2ccc(C(F)(F)F)cc2)NC(=O)[C@@H](CC(N)=O)NC(=O)[C@]2(CCC/C=C\CCCCCC[C@](C)(C(N)=O)NC(=O)[C@@H](CC(C)C)NC1=O)CCC/C=C\CCC[C@@](C)(N)C(=O)N[C@H](C)C(=O)N[C@H](Cc1c[nH]c3cc(F)ccc13)C(=O)N[C@H](Cc1ccc(O)cc1)C(=O)N2 [^DPMI-δ (1-5-12)]	4	≥ 50	52.1	< 1	No detectable LDH leakage						CD (% helicity) ([3]; listed as DPMI-δ(1,5,12)): 52%; CD (% helicity) ([3]; listed as stitched peptide): 52%; Kd (MDM4): 12.5 nM; Kd (MDM2 [5]; Table 2): < 1 nM; counterscreen activity [2]: negligible counter screen activity; Western blot: stabilization of MDM2 and activation of p53 (HCT-116 cells): Stabilization of MDM2 and activation of p53
CC(C)C[C@@H](NC(=O)[C@@H](CC(C)C)NC(=O)[C@@]1(C)CCCC/C=C\CCC[C@@](C)(NC(=O)[C@@H](Cc2ccc(O)cc2)NC(=O)[C@@H](Cc2c[nH]c3cc(F)ccc23)NC(=O)[C@@H](C)NC(=O)[C@H](N)[C@H](C)O)C(=O)N[C@H](CC(N)=O)C(=O)N[C@H](Cc2ccc(C(F)(F)F)cc2)C(=O)N[C@H](CCC(=O)O)C(=O)N1)C(=O)N[C@H](CCCNC(=N)N)C(N)=O [^DPMI-δ (5-9)] (H-[dT][dA][dTrp(6-F)][dY][R5][dN][dPhe(4-CF3)][dE][X1][dL][dL][dR]-NH2; staple (Z) 5-9)		47	38.0	29	did not cause LDH leakage						binding to MDM2 in FP assay (MDM2 [4]): no binding; binding to MDMX in FP assay (MDM4): no binding; p53 activation in reporter cells [1]: unable to activate cellular p53
[dT][R5][dTrp(6-F)][dY][dA][R5][dPhe(4-CF3)][dE][dK][dL][dL][dR]-NH2 (staple 2-6) [^DPMI-δ(2-6)]						> 50	> 500	> 10000			
[R5][dA][dTrp(6-F)][dY][R5][dN][dPhe(4-CF3)][dE][S5][dL][dL][R8]-NH2 (staple 1-5, 9-12) [^DPMI-δ(1-5,9-12)]						34.6	< 1	0.7	200	2000	fold increase in affinity as compared to ^DPMI-δ(1-5) and ^DPMI-δ(5-12) [9]: 10 to 100 fold
B1						13.7	< 1		500	600	cellular activation of p53, EC50 (HCT116 p53 reporter cells) [6]: 17500 nM
B2						4	< 1	4.25	200	1000	fold increase in affinity as compared to ^DPMI-δ(1-5) and ^DPMI-δ(5-12) [9]: 10 to 100 fold
[dT][dA][dTrp(6-F)][dY][R5][dN][dPhe(4-CF3)][dE][R5][dL][dL][dR]-NH2 (staple 5-9) [^DPMI-δ(5-9)]						> 50					Kd [11]: > 10000 nM
